Measurements taken from US20230107216A1, “PANTETHEINE DERIVATIVES AND USES THEREOF” (Comet Therapeutics, Inc., priority 2018, published 2023).

The molecules below were run on HepG2 cells (assay: MitoBiogenesis In-Cell ELISA (COX-I, SDH-A)). Conditions: Homo sapiens, 168 h, 10 uM, 7 days, read-out: % increase in Mitochondrial Biogenesis.
Assay type: cell-based
Summary of the method: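 HepG2 cells were plated, adhered overnight at 37 °C/5% CO2, then exposed to test compounds (50–10 μM) in DMEM with 10% FBS for 7 days without media change; vehicle was 0.2% DMSO. COX-I and SDH-A were measured by in-cell ELISA and reported as signal relative to vehicle, n=2.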

Compound	activation at 10 µM
CC(C)C(=O)CC(=O)SCCNC(=O)CCNC(=O)[C@H](O)C(C)(C)CO [Compound 1239, (R)—S-(2-(3-(2,4-dihydroxy-3,3-dimethylbutanamido)propanamido)ethyl) 4-methyl-3-oxopentanethioate]	> 5%
CC(C)(CO)[C@@H](OC(=O)CCC(=O)O)C(=O)NCCC(=O)NCCS [Compound 1311, (R)-4-((4-hydroxy-1-((3-((2-mercaptoethyl)amino)-3-oxopropyl)amino)-3,3-dimethyl-1-oxobutan-2-yl)oxy)-4-oxobutanoic acid]	5%

Same assay, conditions: Homo sapiens, 168 h, 50 uM, 7 days, read-out: % increase in Mitochondrial Biogenesis

Compound	activation at 50 µM
COC(=O)CCC(=O)SCCNC(=O)CCNC(=O)[C@H](O)C(C)(C)CO [Compound 4, Methyl (R)-4-((2-(3-(2,4-dihydroxy-3,3-dimethylbutanamido)propanamido)ethyl)thio)-4-oxobutanoate]	> 5%
C/C=C/C(=O)SCCNC(=O)CCNC(=O)[C@H](O)C(C)(C)COP(=O)(O)O [Compound 82, (R)—S-(2-(3-(2-hydroxy-3,3-dimethyl-4-(phosphonooxy)butanamido)propanamido)ethyl) (E)-but-2-enethioate]	> 10%
COC(=O)C(C)C(=O)SCCNC(=O)CCNC(=O)[C@H](O)C(C)(C)CO (some centres unmarked) [Compound 405]	> 5%
CCC(C)C(=O)CC(=O)SCCNC(=O)CCNC(=O)[C@H](O)C(C)(C)CO (stereo partly drawn) [Compound 1240, S-(2-(3-((R)-2,4-dihydroxy-3,3-dimethylbutanamido)propanamido)ethyl) 4-methyl-3-oxohexanethioate]	> 20%
CC(O)C(C(=O)SCCNC(=O)CCNC(=O)[C@H](O)C(C)(C)CO)C(C)O (stereo partly drawn) [Compound 1285, (2R)-2,4-dihydroxy-N-[2-[(2-[[3-hydroxy-2-(1-hydroxyethyl)butanoyl]sulfanyl]ethyl)carbamoyl]ethyl]-3,3-dimethylbutanamide]	> 10%

These molecules were tested on Very long-chain acyl-CoA dehydrogenase (VLCAD) primary fibroblasts GM17475 (assay: NADP+/NADPH (NADP/NADPH-Glo), VLCAD fibroblasts GM17475). Conditions: Homo sapiens, Fibroblast, VLCAD GM17475 P10, assay condition A (10 mM glucose, 2 mM L-glutamine, 1 mM pyruvate, 10% FBS), 24h, read-out: Increase in Total NADP+ + NADPH.
Assay type: cell-based
Description: Primary adherent fibroblasts were cultured in minimum essential medium (MEM) (Gibco, 25030081) supplemented with 2 mM L-Glutamine (Gibco, 25030081), 15% fetal bovine serum (FBS) (Gibco, 26400044) and 1% penicillin/streptomycin (Gibco, 5140122) at 37° C. and 5% CO2. Cells were collected for either passaging or experiment at ˜70-80% confluence. Cells were obtained by trypsinization and seeded in cell culture microplates either white plate (Thermo Fisher Scientific, 152028) for luminescent measurement or black plate (Thermo Fisher Scientific, 165305) for fluorescent based read out for different assays listed below. Cells were obtained by trypsinization and […] were seeded and allowed to adhere for 16-18 hours to have confluency around 70-80% in the cell well with culture media. After 24 hours prior to measurements (37° C., 5% CO2) media was changed to Dulbecco's Modified Eagle Medium (DMEM, Agilent Seahorse cat #103575-100) with the appropriate supplements as stated below.
Primary fibroblasts assayed were Propionic Acidemia (PA) (GM03590 Coriell Institute for Medical Research, Tsi 6337 Trans-Hit Bio), Methylmalonic Acidemia (MMA) (Tsi 5224 Trans-Hit Bio), Subnormal activation of pyruvate dehydrogenase complex (PDH) (GM01503 Coriell Institute for Medical Research), Very long-chain acyl-CoA dehydrogenase (VLCAD) (GM17475), Leigh Syndrome (LS) (GM03672, GM13411 Coriell Institute for Medical Research), Pyruvate Carboxylase Deficiency (PC) (GM00444 Coriell Institute for Medical Research). 10 μM of Compounds were added for 2 hours in PA, MMA lines and for 24h for the other fibroblast lines.
Assay was performed according to manufacturer instructions (NADP+/NADPH-Glo Assay Promega, G9082). Assay required a plate for total measurement of NADP+/NADPH and a plate for individual measurement of NADP+ or NADPH. For every assay a 12-point standard curve is prepared ranging from 400 nM to 0.625 nM. Media is removed and replaced with 50 μl of PBS for both assays.
For individual NADP+/NADPH measurements, 50 μl of 1% DTAB (Sigma, D5047) (cell lysis reagent) in 0.2N NaOH was added to the plates and 100 μl of lysate was split into two plates with 50 μl each from which ratio of NADP/NADPH can be calculated. 25 μl of 0.4N HCl were added to the NADP+ plates and both NADP+ and NADPH plates were heated at 60° C. for 15 minutes. The acid and heat treatment destroyed NADPH allowing individual NADP+ measurements while heating in basic conditions destroys NADP+ allowing individual NADPH measurement. After 15 minutes plates were allowed to come to room temperature and Trizma base (Sigma, T1699) was added to the NADP+ plates to neutralize the acid and HCl Trizma hydrochloride (Sigma, T2694) was added to the NADPH plates. The NADNADPH glo reagent was prepared by adding 125 μl of NAD cycling substrate, 125 μl of reductase, 125 μl of reductase substrate, 125 μl NAD cycling enzyme to a total of the 25 ml of NAD GLO reagent. 1:1 ratio of total volume of reagent was added to the individual NADP+, NADPH measurements (total 100 μl) and 50 μl were added for the total NAD/NADPH measurements. Luminescence was measured for 30-60 minutes within the linear range.
A total dead cell count was performed as described in Example 817 and only alive cells were used for analysis.

Compound	activation at 10 µM
CC(C)(CO)[C@@H](O)C(=O)NCCC(=O)NCCSC(=O)CC(=O)CCC(=O)O [Compound 2, 6-[(2-[3-[(2R)-2,4-dihydroxy-3,3-dimethylbutanamido]propanamido]ethyl)sulfanyl]-4,6-dioxohexanoic acid]	≥ 10%
C[C@@H](O)CC(=O)CC(=O)SCCNC(=O)CCNC(=O)[C@H](O)C(C)(C)CO [Compound 42, (2R)-2,4-dihydroxy-N-[2-[(2-[[(5R)-5-hydroxy-3-oxohexanoyl]sulfanyl]ethyl)carbamoyl]ethyl]-3,3-dimethylbutanamide]	≥ 10%
CC(=O)OCC(C)(C)[C@@H](O)C(=O)NCCC(=O)NCCSC(=O)CC(=O)CCC(=O)O [Compound 140, 6-[(2-[3-[(2R)-4-(acetyloxy)-2-hydroxy-3,3-dimethylbutanamido]propanamido]ethyl)sulfanyl]-4,6-dioxohexanoic acid]	≥ 10%
CCC(=O)CC(=O)SCCNC(=O)CCNC(=O)[C@H](O)C(C)(C)CO [Compound 382, (2R)-2,4-dihydroxy-3,3-dimethyl-N-[2-([2-[(3-oxopentanoyl)sulfanyl]ethyl]carbamoyl)ethyl]butanamide]	≥ 10%
COC(=O)CC(C(C)=O)C(=O)SCCNC(=O)CCNC(=O)[C@H](O)C(C)(C)CO (some centres unmarked) [Compound 410]	≥ 10%
CC(=O)SCCNC(=O)CCNC(=O)[C@H](O)C(C)(C)COC(=O)CCC(=O)O [Compound 1242, (R)-12-hydroxy-13,13-dimethyl-2,7,11,16-tetraoxo-15-oxa-3-thia-6,10-diazanonadecan-19-oic acid]	≥ 10%
CC[C@@H](O)CC(=O)SCCNC(=O)CCNC(=O)[C@H](O)C(C)(C)CO [Compound 1245, (2R)-2,4-dihydroxy-N-{2-[(2-{[(3R)-3-hydroxypentanoyl]sulfanyl}ethyl)carbamoyl]ethyl}-3,3-dimethylbutanamide]	≥ 10%
CC(=O)OCC(C)(C)[C@@H](OC(C)=O)C(=O)NCCC(=O)NCCSC(C)=O [Compound 1264, (1R)-3-(acetyloxy)-1-[(2-[[2-(acetylsulfanyl)ethyl]carbamoyl]ethyl)carbamoyl]-2,2-dimethylpropyl acetate]	≥ 10%
CC(O)C(C(=O)SCCNC(=O)CCNC(=O)[C@H](O)C(C)(C)CO)C(C)O (stereo partly drawn) [Compound 1285, (2R)-2,4-dihydroxy-N-[2-[(2-[[3-hydroxy-2-(1-hydroxyethyl)butanoyl]sulfanyl]ethyl)carbamoyl]ethyl]-3,3-dimethylbutanamide]	≥ 10%

Same assay, conditions: Homo sapiens, Fibroblast, VLCAD GM17475 P10, assay condition B (1 mM glucose, 2 mM L-glutamine, 1 mM pyruvate, 10% FBS), 24h, read-out: Increase in Total NADP+ + NADPH

Compound	activation at 10 µM
CC(O)CC(O)CC(=O)SCCNC(=O)CCNC(=O)[C@H](O)C(C)(C)CO (some centres unmarked) [Compound 400]	≥ 10%
CC(O)CC(O)CC(O)CC(=O)SCCNC(=O)CCNC(=O)[C@H](O)C(C)(C)CO (some centres unmarked) [Compound 401]	≥ 10%

What follows are molecules tested on Peripheral blood mononuclear cells co-cultured with B-cells (BT system) (assay: cells). Conditions: Homo sapiens, 72 h, read-out: % decrease in sIL-17.

Compound	inhibition at 1 µM	inhibition at 10 µM
COC(=O)CCC(=O)SCCNC(=O)CCNC(=O)[C@H](O)C(C)(C)COC(C)=O [Compound 138]	≥ 20%	
CC(C)(CO)[C@@H](O)C(=O)NCCC(=O)NCCSC(=O)[C@@H](N)Cc1ccc(O)c(O)c1 [Compound 371, (2R)—N-[2-[(2-[[(2S)-2-amino-3-(3,4-dihydroxyphenyl)propanoyl]sulfanyl]ethyl)carbamoyl]ethyl]-2,4-dihydroxy-3,3-dimethylbutanamide]		≥ 20%
CC(=O)SCCNC(=O)CCNC(=O)[C@H](O)C(C)(C)COC(=O)[C@H](C)N [Compound 502, (3R)-3-[(2-[[2-(acetylsulfanyl)ethyl]carbamoyl]ethyl)carbamoyl]-3-hydroxy-2,2-dimethylpropyl (2S)-2-aminopropanoate]	≥ 20%	
COC(=O)CCC(=O)SCCNC(=O)CCNC(=O)[C@H](OC(=O)CN)C(C)(C)CO [Compound 1294, methyl 4-[(2-[3-[(2R)-2-[(2-aminoacetyl)oxy]-4-hydroxy-3,3-dimethylbutanamido]propanamido]ethyl)sulfanyl]-4-oxobutanoate]	≥ 20%	

Same assay, conditions: Homo sapiens, 72 h, read-out: % increase in sIL-6

Compound	activation at 1 µM	activation at 10 µM
CCCCCCC(=O)SCCNC(=O)CCNC(=O)[C@H](O)C(C)(C)CO [Compound 372, (2R)—N-(2-[[2-(heptanoylsulfanyl)ethyl]carbamoyl]ethyl)-2,4-dihydroxy-3,3-dimethylbutanamide]	≥ 10%	
CC(=O)SCCNC(=O)CCNC(=O)[C@H](O)C(C)(C)COC(=O)[C@@H](N)Cc1ccc(O)c(O)c1 [Compound 498, (3R)-3-[(2-[[2-(acetylsulfanyl)ethyl]carbamoyl]ethyl)carbamoyl]-3-hydroxy-2,2-dimethylpropyl (2S)-2-amino-3-(3,4-dihydroxyphenyl)propanoate]		≥ 10%
CC(=O)SCCNC(=O)CCNC(=O)[C@H](O)C(C)(C)COC(=O)[C@H](C)N [Compound 502, (3R)-3-[(2-[[2-(acetylsulfanyl)ethyl]carbamoyl]ethyl)carbamoyl]-3-hydroxy-2,2-dimethylpropyl (2S)-2-aminopropanoate]		≥ 10%
COC(=O)CCC(=O)SCCNC(=O)CCNC(=O)[C@H](OC(=O)CNC(C)=O)C(C)(C)CO [Compound 1298, methyl 4-[(2-[3-[(2R)-2-[(2-acetamidoacetyl)oxy]-4-hydroxy-3,3-dimethylbutanamido]propanamido]ethyl)sulfanyl]-4-oxobutanoate]	≥ 10%	
